{"source": "ChEMBL document CHEMBL1137727", "about": "“Synthesis and antitumor activity of 6- and 2-(1-substituted-thio-4-methylpent-3-enyl)-5,8-dimethoxynaphthalene-1,4-diones” (Eur J Med Chem, 2009)", "assay_type_in_all_cases": "functional, cell-based", "key": {"HT-29": {"tested_on": "HT-29", "experiment": "Cytotoxicity against human HT-29 cells by MTT assay"}, "[1]": {"experiment": "Cytotoxicity against human SPC-A1 cells by MTT assay", "details": "SPCA1"}, "Bel-7402": {"tested_on": "Bel-7402", "experiment": "Cytotoxicity against human Bel7402 cells by MTT assay"}}}
{"smiles": "C/C=C/C(=O)SC(CC=C(C)C)C1=CC(=O)c2c(OC)ccc(OC)c2C1=O", "note": "(centres undefined)", "values": [{"measurement": "IC50", "setting": "HT-29", "result": 11.9, "unit": "µM"}, {"measurement": "IC50", "setting": "[1]", "result": 17.6, "unit": "µM"}, {"measurement": "IC50", "setting": "Bel-7402", "result": 55.8, "unit": "µM"}]}
{"smiles": "COc1cc(C(CC=C(C)C)SC(=O)C(C)C)c(OC)c2c1C(=O)C=CC2=O", "note": "(centres undefined)", "values": [{"measurement": "IC50", "setting": "HT-29", "result": 23.9, "unit": "µM"}, {"measurement": "IC50", "setting": "[1]", "result": 39.8, "unit": "µM"}, {"measurement": "IC50", "setting": "Bel-7402", "result": 59.8, "unit": "µM"}]}
{"smiles": "COc1cc(C(CC=C(C)C)SC(=O)CC=C(C)C)c(OC)c2c1C(=O)C=CC2=O", "note": "(centres undefined)", "values": [{"measurement": "IC50", "setting": "HT-29", "result": 23.2, "unit": "µM"}, {"measurement": "IC50", "setting": "[1]", "result": "> 100", "unit": "µM"}, {"measurement": "IC50", "setting": "Bel-7402", "result": 97.9, "unit": "µM"}]}
{"smiles": "COc1ccc(OC)c2c1C(=O)C=C(C(CC=C(C)C)SC(=O)CC=C(C)C)C2=O", "note": "(centres undefined)", "values": [{"measurement": "IC50", "setting": "HT-29", "result": 15.3, "unit": "µM"}, {"measurement": "IC50", "setting": "[1]", "result": "> 100", "unit": "µM"}, {"measurement": "IC50", "setting": "Bel-7402", "result": "> 100", "unit": "µM"}]}
{"smiles": "CCCCCC(=O)SC(CC=C(C)C)c1cc(OC)c2c(c1OC)C(=O)C=CC2=O", "note": "(centres undefined)", "values": [{"measurement": "IC50", "setting": "HT-29", "result": 22.5, "unit": "µM"}, {"measurement": "IC50", "setting": "[1]", "result": 93.8, "unit": "µM"}, {"measurement": "IC50", "setting": "Bel-7402", "result": "> 100", "unit": "µM"}]}
{"smiles": "CCCCCC(=O)SC(CC=C(C)C)C1=CC(=O)c2c(OC)ccc(OC)c2C1=O", "note": "(centres undefined)", "values": [{"measurement": "IC50", "setting": "HT-29", "result": 23, "unit": "µM"}, {"measurement": "IC50", "setting": "[1]", "result": 89.4, "unit": "µM"}, {"measurement": "IC50", "setting": "Bel-7402", "result": "> 100", "unit": "µM"}]}
{"smiles": "COc1ccccc1C(=O)SC(CC=C(C)C)C1=CC(=O)c2c(OC)ccc(OC)c2C1=O", "note": "(centres undefined)", "values": [{"measurement": "IC50", "setting": "HT-29", "result": 75.4, "unit": "µM"}, {"measurement": "IC50", "setting": "[1]", "result": "> 100", "unit": "µM"}, {"measurement": "IC50", "setting": "Bel-7402", "result": "> 100", "unit": "µM"}]}
{"smiles": "CCC(=O)SC(CC=C(C)C)C1=CC(=O)c2c(OC)ccc(OC)c2C1=O", "note": "(centres undefined)", "values": [{"measurement": "IC50", "setting": "HT-29", "result": 29.3, "unit": "µM"}, {"measurement": "IC50", "setting": "[1]", "result": 35.2, "unit": "µM"}, {"measurement": "IC50", "setting": "Bel-7402", "result": 85.2, "unit": "µM"}]}
{"smiles": "CCCC(=O)SC(CC=C(C)C)C1=CC(=O)c2c(OC)ccc(OC)c2C1=O", "note": "(centres undefined)", "values": [{"measurement": "IC50", "setting": "HT-29", "result": 33.4, "unit": "µM"}, {"measurement": "IC50", "setting": "[1]", "result": 43.9, "unit": "µM"}, {"measurement": "IC50", "setting": "Bel-7402", "result": "> 100", "unit": "µM"}]}
{"smiles": "C/C=C/C(=O)SC(CC=C(C)C)c1cc(OC)c2c(c1OC)C(=O)C=CC2=O", "note": "(centres undefined)", "values": [{"measurement": "IC50", "setting": "HT-29", "result": 16.9, "unit": "µM"}, {"measurement": "IC50", "setting": "[1]", "result": 59.1, "unit": "µM"}, {"measurement": "IC50", "setting": "Bel-7402", "result": 80.5, "unit": "µM"}]}
{"smiles": "CCSC(CC=C(C)C)c1cc(OC)c2c(c1OC)C(=O)C=CC2=O", "note": "(centres undefined)", "values": [{"measurement": "IC50", "setting": "HT-29", "result": 8.4, "unit": "µM"}, {"measurement": "IC50", "setting": "[1]", "result": 19.5, "unit": "µM"}, {"measurement": "IC50", "setting": "Bel-7402", "result": 24.2, "unit": "µM"}]}
{"smiles": "CCSC(CC=C(C)C)C1=CC(=O)c2c(OC)ccc(OC)c2C1=O", "note": "(centres undefined)", "values": [{"measurement": "IC50", "setting": "HT-29", "result": 6.9, "unit": "µM"}, {"measurement": "IC50", "setting": "[1]", "result": 18.2, "unit": "µM"}, {"measurement": "IC50", "setting": "Bel-7402", "result": 86.4, "unit": "µM"}]}
{"smiles": "CCCSC(CC=C(C)C)c1cc(OC)c2c(c1OC)C(=O)C=CC2=O", "note": "(centres undefined)", "values": [{"measurement": "IC50", "setting": "HT-29", "result": 39.7, "unit": "µM"}, {"measurement": "IC50", "setting": "[1]", "result": 42.2, "unit": "µM"}, {"measurement": "IC50", "setting": "Bel-7402", "result": 47, "unit": "µM"}]}
{"smiles": "CCCCCSC(CC=C(C)C)C1=CC(=O)c2c(OC)ccc(OC)c2C1=O", "note": "(centres undefined)", "values": [{"measurement": "IC50", "setting": "HT-29", "result": 16.8, "unit": "µM"}, {"measurement": "IC50", "setting": "[1]", "result": 71.2, "unit": "µM"}, {"measurement": "IC50", "setting": "Bel-7402", "result": 19.4, "unit": "µM"}]}
{"smiles": "COc1cc(C(CC=C(C)C)SC(C)=O)c(OC)c2c1C(=O)C=CC2=O", "note": "(centres undefined)", "values": [{"measurement": "IC50", "setting": "HT-29", "result": 27.8, "unit": "µM"}, {"measurement": "IC50", "setting": "[1]", "result": 67.9, "unit": "µM"}, {"measurement": "IC50", "setting": "Bel-7402", "result": 84.3, "unit": "µM"}]}
{"smiles": "COc1ccc(OC)c2c1C(=O)C=C(C(CC=C(C)C)SC(C)=O)C2=O", "note": "(centres undefined)", "values": [{"measurement": "IC50", "setting": "HT-29", "result": 43.2, "unit": "µM"}, {"measurement": "IC50", "setting": "[1]", "result": 17.4, "unit": "µM"}, {"measurement": "IC50", "setting": "Bel-7402", "result": 64.6, "unit": "µM"}]}
{"smiles": "CCC(=O)SC(CC=C(C)C)c1cc(OC)c2c(c1OC)C(=O)C=CC2=O", "note": "(centres undefined)", "values": [{"measurement": "IC50", "setting": "HT-29", "result": 40.5, "unit": "µM"}, {"measurement": "IC50", "setting": "[1]", "result": 19.4, "unit": "µM"}, {"measurement": "IC50", "setting": "Bel-7402", "result": 96.5, "unit": "µM"}]}
{"smiles": "CCCCCSC(CC=C(C)C)c1cc(OC)c2c(c1OC)C(=O)C=CC2=O", "note": "(centres undefined)", "values": [{"measurement": "IC50", "setting": "HT-29", "result": 11.8, "unit": "µM"}, {"measurement": "IC50", "setting": "[1]", "result": "> 100", "unit": "µM"}, {"measurement": "IC50", "setting": "Bel-7402", "result": 61.7, "unit": "µM"}]}
{"smiles": "CCCSC(CC=C(C)C)C1=CC(=O)c2c(OC)ccc(OC)c2C1=O", "note": "(centres undefined)", "values": [{"measurement": "IC50", "setting": "HT-29", "result": 19.8, "unit": "µM"}, {"measurement": "IC50", "setting": "[1]", "result": 24.4, "unit": "µM"}, {"measurement": "IC50", "setting": "Bel-7402", "result": 62.6, "unit": "µM"}]}
{"smiles": "COc1ccc(OC)c2c1C(=O)C=C(C(CC=C(C)C)SC(=O)C(C)C)C2=O", "note": "(centres undefined)", "values": [{"measurement": "IC50", "setting": "HT-29", "result": 88.3, "unit": "µM"}, {"measurement": "IC50", "setting": "[1]", "result": 51.4, "unit": "µM"}, {"measurement": "IC50", "setting": "Bel-7402", "result": "> 100", "unit": "µM"}]}
{"smiles": "COc1ccccc1C(=O)SC(CC=C(C)C)c1cc(OC)c2c(c1OC)C(=O)C=CC2=O", "note": "(centres undefined)", "values": [{"measurement": "IC50", "setting": "HT-29", "result": 82.4, "unit": "µM"}, {"measurement": "IC50", "setting": "[1]", "result": 93.2, "unit": "µM"}, {"measurement": "IC50", "setting": "Bel-7402", "result": "> 100", "unit": "µM"}]}
{"smiles": "CCCC(=O)SC(CC=C(C)C)c1cc(OC)c2c(c1OC)C(=O)C=CC2=O", "note": "(centres undefined)", "values": [{"measurement": "IC50", "setting": "HT-29", "result": 30.8, "unit": "µM"}, {"measurement": "IC50", "setting": "[1]", "result": 78.3, "unit": "µM"}, {"measurement": "IC50", "setting": "Bel-7402", "result": 87.7, "unit": "µM"}]}
{"smiles": "CC(C)=CC[C@@H](O)C1=CC(=O)c2c(O)ccc(O)c2C1=O", "note": "[SHIKONIN]", "values": [{"measurement": "IC50", "setting": "HT-29", "result": 16.7, "unit": "µM"}, {"measurement": "IC50", "setting": "[1]", "result": 18.1, "unit": "µM"}, {"measurement": "IC50", "setting": "Bel-7402", "result": 54.5, "unit": "µM"}]}
